Experiments:
Erysiphe polygoni = experiment: Powdery mildew, % disease control; format: in vivo, Erysiphe polygoni (host: bean seedlings, var. Bountiful); settings: 250 ppm spray; inoculated one day later; rated after about 10 days; relative to untreated check plants
Description: The powdery mildew test was made using bean seedlings (var. Bountiful) with well-developed primary leaves. The pathogen was Erysiphe polygoni. The bean seedlings were sprayed with a 250-ppm solution of the test compound in an acetone-water mixture containing a nonionic emulsifier. The treated plants were inoculated one day after spray application of the test compound with the pathogen. The plants were then maintained in a greenhouse at a 60-80% relative humidity and at a temperature of 68°-70° F. The rate of infection on the leaves was made after about 10 days. The percent disease control provided by a given test compound was based on the disease reduction relative to untreated check plants.

[1] = system: Alternaria solani conidia; experiment: Tomato early blight, % disease control; format: in vivo, Alternaria solani (host: tomato, variety Bonny Best); settings: 250 ppm spray; inoculated one day later; about 12 days; relative to untreated check plants
Description: Compounds of the invention were tested for the control of the Tomato Early Blight organism, Alternaria solani conidia. Tomato (variety Bonny Best) seedlings of 6 to 7 weeks old were used. The tomato plants were sprayed with a 250-ppm solution of the test compound in an acetone-and-water solution containing a small amount of a nonionic emulsifier. The sprayed plants were inoculated one day later with the organism, dried and maintained at 60-80% relative humidity for about 12 days. Percent disease control was based on the percent disease development on untreated check plants.

Septoria apii = format: in vivo, Septoria apii (host: celery, Utah); settings: 250 ppm (Table I default); approximately 48 hours incubation then approximately 14 days; relative to untreated check plants
Phytophthora infestans = format: in vivo, Phytophthora infestans (host: tomato, cultivar Bonny Best); settings: 250 ppm spray; inoculated one day later; approximately 7 days in greenhouse; relative to untreated check plants
Uronyces phaseoli tipica = experiment: Leaf rust, % disease control; format: in vivo, Uronyces phaseoli tipica (host: pinto beans); settings: 250 ppm spray; inoculated thereafter; rated after about 14 days; relative to untreated check plants
Description: The leaf-rust was made using pinto beans. The pathogen was Uronyces phaseoli tipica. The pinto-bean plants were sprayed with a 250-ppm solution of the test compound in an acetone-water mixture containing a nonionic emulsifier. The treated plants were inoculated thereafter with the pathogen and then incubated in an environmental chamber for approximately 20 hours at 100% relative humidity and a temperature of 68°-70° F. The plants were then removed from the chamber, allowed to dry, and then maintained in a greenhouse at a 60-80% relative humidity. The rate of infection on the leaves was made after about 14 days. The percent disease control provided by a given test compound was based on the disease reduction relative to untreated check plants.

SMILES	Fungicidal efficacy, % control, PM (Erysiphe polygoni)	Fungicidal efficacy, % control, TEB [1]	Fungicidal efficacy, % control, CLB (Septoria apii)	Fungicidal efficacy, % control, TLB (Phytophthora infestans)	Fungicidal efficacy, % control, LR (Uronyces phaseoli tipica)
C#CC1(N2CN(C3(C#C)CCCCC3)CN(C3(C#C)CCCCC3)C2)CCCCC1 [Compound 1, 1,3,5-TRI(1'-ETHYNYLCYCLOHEXYL)-HEXAHYDRO-1,3,5-TRIAZINE]	37%	100%	74%	100%	0%
C#CC(C)(C)N1CN(C(C)(C)C#C)CN(C(C)(C)C#C)C1 [Compound 2, 1,3,5-(1',1'-dimethyl-propargyl)-hexahydro-1,3,5-triazine]	0%	0%	27%	0%	0%
